Results reported in US20130085133A1, “ANTI-VIRAL TREATMENT AND ASSAY TO SCREENFOR ANTI-VIRAL AGENT” (Sourthern Research Institute Office of Commercialization …, priority 2010, published 2013).

Columns and labels:
[1] = test system: respiratory syncytial virus (RSV) strain Long; experiment: microbe, parasite or virus in culture; conditions: human respiratory syncytial virus, HEp-2, 144 h
[2] = cytotoxicity assay (percent viability of HEp-2 cells, Cell Titer-Glo); conditions: human

EC50 [1] | Compound | CC50 at 6 days ([2]; HEp-2 cells) | CC50 at 6 days [2] [mg/L]
19.5 mg/L | CCOc1ccc(-c2nnc(Nc3ccc(OC)c(C(=O)NC)c3)c3ccccc23)cc1 [AB00317165] | > 25 mg/L | 
12.4 mg/L | O=C(Nc1cccc(Br)c1)C1CCN(C(=O)c2ccc([N+](=O)[O-])cc2)CC1 [AB00317214] | > 25 mg/L | 
22.3 mg/L | CC(C)(C)c1ccc(C(=O)N2CCC(C(=O)Nc3ccc4c(c3)OCO4)CC2)cc1 [AB00317272] | > 25 mg/L | 
22.8 mg/L | CCCCC(=O)Nc1cccc(NC(=O)c2ccccc2OC)c1 [AB00317410] | > 25 mg/L | 
23.7 mg/L | CC(C)(C)c1ccc(C(=O)N2CCC(C(=O)Nc3ccccc3Cl)CC2)cc1 [AB00317604] | > 25 mg/L | 
20.9 mg/L | CCOc1cc(C2CC(=O)Nc3c2ccc2ccccc32)cc(Cl)c1O (stereo not drawn) [AB00317685] | > 25 mg/L | 
24.2 mg/L | Cn1c(SC/C=C/c2ccccc2)nnc1-c1cccs1 [AB00318335] | > 25 mg/L | 
2.39 mg/L | COC(=O)C1=C(C)N(Cc2ccccc2)C(=O)NC1c1ccc(C(=O)OC)cc1 (stereo not drawn) [AB00318401] | > 25 mg/L | 
23.5 mg/L | CCCCC(=O)Nc1cccc(NC(=O)c2ccc(OCC)c([N+](=O)[O-])c2)c1 [AB00318606] | > 25 mg/L | 
22.2 mg/L | Cc1ccnc(NCc2cc(Br)ccc2O)c1 [AB00318952] | > 25 mg/L | 
24.4 mg/L | Cc1ccccc1C(=O)NC(=S)Nc1cccc(F)c1 [AB00319373] | > 25 mg/L | 
13.8 mg/L | C=CCNc1cc(N2CCN(C(=O)c3ccc(C)cc3)CC2)ccc1[N+](=O)[O-] [AB00319534] | > 25 mg/L | 
18.7 mg/L | CNc1cc(N2CCCC2)ccc1[N+](=O)[O-] [AB00322577] | > 25 mg/L | 
18.8 mg/L | O=Cc1cc(Br)c(Sc2ncccn2)o1 [AB00326733] | > 25 mg/L | 
21.1 mg/L | CCOC(=O)C1=C(C)Nc2ncnn2C1c1ccc(OC)c(OCC)c1 (stereo not drawn) [AB00335740] | > 25 mg/L | 
21.9 mg/L | COc1ccc(-c2nc3ccccc3s2)cc1O [AB00339206] | > 25 mg/L | 
19.8 mg/L | Cc1cc(C)cc(C(=O)Nc2ccc(C#N)cc2)c1 [AB00340723] | > 25 mg/L | 
17.9 mg/L | N#C/C(=C\c1ccc(-c2ccc(Cl)c(Cl)c2)o1)C(N)=S [AB00344427] | > 25 mg/L | 
10.6 mg/L | Fc1cccc(NC(=S)NNC(=S)Nc2ccc(Cl)cc2)c1 [AB00348154] | > 25 mg/L | 
21.4 mg/L | CCOC(=O)c1ccc(NC(=O)NCCc2ccccc2OC)cc1 [AB00348268] | > 25 mg/L | 
21.2 mg/L | CC(=O)c1cccc(NC(=S)NNC(=S)Nc2ccc(F)cc2F)c1 [AB00349666] | > 25 mg/L | 
19.2 mg/L | CCOC(=O)c1ccc(NC(=O)NC(C)C2CCCO2)cc1 (stereo not drawn) [AB00349705] | > 25 mg/L | 
17.5 mg/L | COC(=O)c1sc2cc(NC(=S)NCCCN3CCCC3=O)ccc2c1Cl [AB00351451] | > 25 mg/L | 
18.4 mg/L | COc1ccc(-c2ccc(-c3noc(-c4ccco4)n3)c(OC)n2)cc1 [AB00353001] | > 25 mg/L | 

EC50 [1] | Compound | CC50 at 6 days ([2]; HEp-2 cells) | CC50 at 6 days [2] [mg/L]
6.39 mg/L | CCOC(=O)C1=C(c2ccccc2)NC(=S)NC1c1ccccc1OCC(=O)Nc1ccccc1 (stereo not drawn) [AB00355044] | > 25 mg/L | 
20.1 mg/L | Cc1ccc(NC(=O)CN2CCCC2)c(Br)c1 [AB00358122] | > 25 mg/L | 
12.7 mg/L | Cc1nc(N)sc1-c1nnc(Nc2ccccc2)s1 [AB00358926] | > 25 mg/L | 
18.9 mg/L | CC(=O)Nc1ccc(C(=O)OCc2ccc(C(C)=O)cc2)cc1 [AB00359127] | > 25 mg/L | 
11.4 mg/L | CC1CCCCN1C(=O)c1ccc(NC(=O)c2ccccc2Cl)cc1 (stereo not drawn) [AB00359707] | > 25 mg/L | 
17 mg/L | COc1ccc(S(=O)(=O)N2CCC(C(=O)N3CCN(c4ccccc4)CC3)CC2)cc1Cl [AB00362388] | > 25 mg/L | 
21 mg/L | C=CCN(CC=C)C(=O)c1ccc(OC)c(I)c1 [AB00362750] | > 25 mg/L | 
21.1 mg/L | Fc1cnc(N2CCOCC2)nc1N1CCc2ccccc21 [AB00362810] | > 25 mg/L | 
23.4 mg/L | S=C(c1ccc(OCc2cccc3ccccc23)cc1)N1CCOCC1 [AB00362891] | > 25 mg/L | 
13.3 mg/L | CC1(C)Cc2c(sc(NC(=O)c3ccccc3Br)c2C(N)=O)CO1 [AB00363547] | > 25 mg/L | 
12.6 mg/L | CCC(=O)Nc1ccc(C(=O)OCc2cccc(F)c2)cc1 [AB00363859] | > 25 mg/L | 
19.2 mg/L | COc1ccc(-n2nnnc2SCCO)cc1 [AB00364099] | > 25 mg/L | 
11.5 mg/L | COc1ccc(NC(=O)c2ccc(C)c(S(=O)(=O)Nc3ccccc3C)c2)cc1OC [AB00364640] | > 25 mg/L | 
11.6 mg/L | CCOC(=O)c1ccc(NC(=O)Nc2ccccc2OC)cc1 [AB00365318] | > 25 mg/L | 
19.3 mg/L | CC(Oc1ccc(-c2ccccc2)cc1)C(=O)Nc1nnc(C2CCCO2)s1 (stereo not drawn) [AB00365647] | > 25 mg/L | 
20.2 mg/L | O=C(Nc1c(F)cc(F)cc1Br)c1ccc(Cl)s1 [AB00366410] | > 25 mg/L | 
19.6 mg/L | O=C(NC1=NCCS1)c1cc2c(s1)CCCCCC2 [AB00367559] | > 25 mg/L | 
10.4 mg/L | CCn1c(=O)n(CC)c2cc(NC(=O)c3ccccc3Cl)c(Br)cc21 [AB00369510] | > 25 mg/L | 
11.6 mg/L | CSc1ccc(Cl)c(C(=O)Nc2ccc(Cc3ccccn3)cc2)c1 [AB00369798] | > 25 mg/L | 
13.6 mg/L | O=C(Nc1ccc2c(c1)ncn2C1CCCCC1)c1cccs1 [AB00369934] | > 25 mg/L | 
1.97 mg/L | c1coc(-c2nn3c(Cn4nnc5ccccc54)nnc3s2)c1 [AB00370063] | > 25 mg/L | 
22.5 mg/L | O=S(=O)(Nc1ccc(-c2cn3cccnc3n2)cc1)c1cc(Cl)ccc1Cl [AB00370838] | > 25 mg/L | 
18.8 mg/L | Cn1c(SCC(=O)N2c3ccccc3SC3C=CC=CC32)nnc1-c1ccccc1 (stereo not drawn) [AB00370949] | > 25 mg/L | 
12.7 mg/L | Cc1cc(C)n2nc(C(=O)Nc3cnn(C45CC6CC(CC(C6)C4)C5)c3)cc2n1 [AB00371387] | > 25 mg/L | 

EC50 [1] | Compound | CC50 at 6 days ([2]; HEp-2 cells) | CC50 at 6 days [2] [mg/L]
13.7 mg/L | Cc1cc(SCCC#N)nc2ccccc12 [AB00371866] | > 25 mg/L | 
11.6 mg/L | CCOc1nc2sc3c(c2c2ncnn12)CCCC3 [AB00372085] | > 25 mg/L | 
23.6 mg/L | O=c1c2c3c(sc2ncn1CCO)CCCC3 [AB00372624] | > 25 mg/L | 
14.3 mg/L | N#CCCCCN1c2cccc3cccc(c23)S1(=O)=O [AB00373143] | > 25 mg/L | 
42 µM | CCOC(=O)CCC(NC(=O)c1cnc(NCc2cnc3nc(N)nc(N)c3c2C)s1)C(=O)OCC (stereo not drawn) [AB00375242] | > 50 µM | 
39.2 µM | OCc1cccc2c(Br)cccc12 [AB00375379] | > 50 µM | 
38.4 µM | N#Cc1c(Cl)nc(N)c(N)c1C(F)(F)F [AB00430151] | > 50 µM | 
38.8 µM | NC(=O)c1ncn([C@@H]2O[C@H](CO)[C@@H](O)[C@H]2O)n1 [AB00430481] | > 50 µM | 
33.7 µM | CNc1ncnc2c1ncn2[C@H]1C[C@@H](CO)[C@H](O)[C@@H]1O [AB00430484] | > 50 µM | 
35.6 µM | Nc1c(N=Nc2ccc(-c3ccc(N=Nc4cc(S(=O)(=O)O)c5ccccc5c4N)cc3)cc2)cc(S(=O)(=O)O)c2ccccc12 [AB00443629] | > 50 µM | 
18.8 µM | O=S(=O)(O)c1cc(/N=N/c2cc(S(=O)(=O)O)c3cccnc3c2O)ccc1CCc1ccc(/N=N/c2cc(S(=O)(=O)O)c3cccnc3c2S)cc1S(=O)(=O)O [AB00444131] | > 50 µM | 
10.9 µM | O=S(=O)(O)c1cc(/N=N/c2cc(S(=O)(=O)O)c3cccnc3c2O)ccc1/C=C/c1ccc(/N=N/c2cc(S(=O)(=O)O)c3cccnc3c2O)cc1S(=O)(=O)O [AB00444372] | > 50 µM | 
38.7 µM | CCOc1ccc(Nc2nc3cc(S(=O)(=O)N(CC)CC)ccc3o2)cc1 [AB00536652] | > 50 µM | 
11.3 µM | O=c1c2c([nH]c3ccccc13)-c1ccccc1-n1c(nc3ccccc3c1=O)C2 [AB00700560] | > 50 µM | 
24 µM | Cc1cc(C)n(-c2ccc(C(=O)Nc3cc(Cl)ccc3C)cc2)n1 [AB00712667] | > 50 µM | 
21.9 µM | CCOC(=O)C1=C(C)NC(C)=C(C(=O)OCC)C1C(=O)OCC(=O)Nc1c(Cl)cccc1Cl [AB00712684] | > 50 µM | 
12.2 µM | CSc1ccc(Cl)c(C(=O)Nc2ccc(N3CCCCC3)cc2)c1 [AB00717474] | > 50 µM | 
1.14 µM | C=CC/N=c1\scc(-c2ccc(C)cc2)n1/N=C/c1ccccn1 [AB00718339] | > 50 µM | 
23.8 µM | CCOC(=O)c1ccccc1NC(=O)c1cc(S(=O)(=O)N(CC)c2ccccc2)ccc1Cl [AB00718457] | > 50 µM | 
29.8 µM | Cc1ccc(O)c(C(=O)c2cc(C(=O)Nc3ccccc3C)c(=O)n(-c3ccccc3C)c2)c1 [AB00719359] | > 50 µM | 
49.1 µM | Cc1ccc(-c2csc(NC(=O)COC(=O)c3cccc(Cl)c3)n2)cc1C [AB00720414] | > 50 µM | 
41.9 µM | CC(C)(C)C1CCc2nc3ccccc3c(C(=O)OCC(=O)Nc3ccc(C#N)cc3)c2C1 (stereo not drawn) [AB00721928] | > 50 µM | 

Compound | EC50 [1] | CC50 at 6 days ([2]; HEp-2 cells) | CC50 at 6 days [2] [mg/L]
CN(C)C(=O)Oc1ccc2ccccc2c1Cl [AB00339302] | 12.3 mg/L |  | > 25
CC(C)CCCC(C)C1CC[C@@H]2[C@@H]3CC[C@@H]4CC(CCC=C(c5cc(Cl)c(O)c(C(=O)O)c5)c5cc(Cl)c(O)c(C(=O)O)c5)CC[C@]4(C)[C@@H]3CC[C@]12C (stereo partly drawn) [AB00443953] | 21.3 µM | > 50 µM | 
